Data from EP3381906A1, “COMPOUNDS FOR USE AS HEPARANASE INHIBITORS” (Leadiant Biosciences SA, priority 2017, dated 2018).

How the values were obtained:
heparanase = biological target: T1, heparanase (Homo sapiens, UniProt Q9Y251); assay: AGA*IA assay: heparanase-catalyzed fondaparinux cleavage, colorimetric (WST-1); type: biochemical; details: 2.5 nM heparanase, 100 µM fondaparinux, pH 5.0, 3 h at 37°C; class symbols; read-out: AGAIA assay (IC50)
T1 construct: 100 µM fondaparinux, 2.5 nM heparanase and serial dilutions of test compounds
T1 sequence (Q9Y251 158-543 limits assumed): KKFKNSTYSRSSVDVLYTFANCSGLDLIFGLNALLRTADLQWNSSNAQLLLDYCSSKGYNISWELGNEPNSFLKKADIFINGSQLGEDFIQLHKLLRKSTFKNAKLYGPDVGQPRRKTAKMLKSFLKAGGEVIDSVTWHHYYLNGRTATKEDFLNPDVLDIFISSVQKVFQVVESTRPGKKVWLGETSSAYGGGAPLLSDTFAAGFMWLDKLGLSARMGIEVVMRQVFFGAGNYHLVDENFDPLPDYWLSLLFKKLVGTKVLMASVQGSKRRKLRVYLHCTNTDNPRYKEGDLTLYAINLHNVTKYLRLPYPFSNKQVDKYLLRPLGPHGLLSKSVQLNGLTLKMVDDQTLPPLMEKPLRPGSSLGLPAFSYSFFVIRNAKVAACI
T1 sequence (Q9Y251 36-109 limits assumed): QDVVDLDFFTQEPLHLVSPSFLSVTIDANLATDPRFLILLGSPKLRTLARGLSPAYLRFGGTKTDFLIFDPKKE
Protocol: All compounds were tested in a simple, accurate and robust microplate assay based on the cleavage of the synthetic heparin fragment, the pentasaccharide Fondaparinux (AGA*IA). This assay was originally developed by Hammond and coworkers [Hammond E, Li CP, Ferro V. Development of a colorimetric assay for heparanase activity suitable for kinetic analysis and inhibitor screening. […] Fondaparinux is cleaved by heparanase to generate a reducing disaccharide, which can be quantitatively measured via a colorimetric or a fluorescence assay, the last by the fluorescent sensor polymer-H [Schiemann S, Lühn S, Alban S. Development of both colorimetric and fluorescence heparinase activity assays using fondaparinux as substrate.
The assay measures the appearance of the disaccharide product of heparanase-catalyzed fondaparinux cleavage colorimetrically using the tetrazolium salt WST-1. Assay was essentially performed as described with minor modifications. Briefly, NUNC ELISA 96-well plates were pre-treated with a solution of 4% BSA (bovin serum albumin) in phosphate-buffered saline containing 0.05% Tween 20 (PBST), for 2 h at 37°C, then washed three times with PBST, dried by tapping on paper towel and stored at -20°C. Before use, once again, the plates were washed with PBST.
Then, the absorbance at 560 nm was measured through a microplate reader (Victor 3, Perkin Elmer).
Finally, the measurements were corrected by subtracting both the reagent background and the inner absorbance value of test compound.

[1] = system: HT1080 (human fibrosarcoma); assay: SRB Cell Cytotoxicity Assay; type: cell-based; details: HT-1080, HT1080, treated for 72h, read-out: Concentration of test compounds at which the cell growth is inhibited by 50 % HT1080
Text: (§1) SRB Cell Cytotoxicity Assay is an assay based upon the quantitative staining of cellular proteins by sulforhodamine B (SRB). This assay can be used for high-throughput drug screening (Vichai & Kirkitara, Nature Protocol. 2006, 1, 112). Sulforhodamine B is an anionic aminoxanthene dye that forms an electrostatic complex with the basic amino acid residues of proteins under moderately acid conditions, which provides a sensitive linear response.
(§2) To assess a putative antiproliferative activity of the selected compounds, HT1080 (human fibrosarcoma), U87MG (human glioblastoma astrocytoma) and U2OS (human osteosarcoma) cell lines were treated for 72h, in triplicate, with increasing concentrations of heparanase inhibitors. Inhibition of cell proliferation was then measured by the classical colorimetric SRB Cell Cytotoxicity assay. Absorbance was measured by spectrophotometer at a wavelength of 510 nm and cell proliferation was determined as percent with respect to control cells (cells treated with the vehicle alone). EC50 values were then determined by GraphPad Prism.

[2] = system: U2OS (human osteosarcoma); assay: SRB Cell Cytotoxicity Assay; type: cell-based; details: treated for 72h, read-out: Concentration of test compounds at which the cell growth is inhibited by 50 % U2OS
Text: as §1, §2

[3] = system: U87MG (human glioblastoma astrocytoma); assay: SRB Cell Cytotoxicity Assay; type: cell-based; details: U-87 MG, treated for 72h, read-out: Concentration of test compounds at which the cell growth is inhibited by 50 % U87MG
Text: as §1, §2

[4] = system: HT1080 (human fibrosarcoma); assay: Matrigel cell invasion assay; type: cell-based; details: for inhibition at 2.5 µM: HT-1080, HT1080, Conc. 2.5 µM
Protocol: Heparanase inhibitors were then evaluated for their activity on the invasive potential of HT1080 (human fibrosarcoma) human cell lines, using the Matrigel cell invasion assay which allows to assess the cell invasion ability of malignant and normal cells.
Invasion assay was performed using BioCoat cell culture inserts (BioCoat 8.0µm PET Membrane 24 Well Permeable Supports, Corning). Filters were coated with 100 µl of 300 µg/ml Matrigel dissolved in coating buffer (0.01M Tris pH 8.0, 0.7% NaCl) (Becton-Dickinson Sciences). DMEM (Dulbecco's Modified Eagle's Medium) containing 5% FBS was added to the lower chambers. Cells were pre-treated with heparanase inhibitors for 24 h, detached and added to the upper chambers in media containing the inhibitors. Cells were allowed to invade for 24 h at 37°C in a CO2 incubator and then unmigrated cells were removed from the upper chamber with a cotton swab. The invading cells were fixed, stained with 0.1% crystal violet for 10 min at room temperature, photographed and counted under inverted microscope.
Test compounds were analyzed at fixed concentration for several fields, in duplicates. Activity of test compounds was compared to the reference compound. Activity of most interesting compound was confirmed in a second cell invasion assay. Data were expressed as the percent invasion with respect to cell migration through uncoated insert membrane. (Table 5)

U87MG [5] = assay: Matrigel cell invasion assay; type: cell-based, human; design: key to Invasion Assay Inhibition (%) U87MG: +++: > 90%; ++: 50-90 %; +: < 50%; -: Not active; details: for inhibition at 2.5 µM: Homo sapiens, U-87 MG, Conc. 2.5 µM
U2OS = assay: Matrigel cell invasion assay; type: cell-based, human; design: key to Invasion Assay Inhibition (%) U2OS: +++: > 90%; ++: 50-90 %; +: < 50%; -: Not active; details: for inhibition at 2.5 µM: Homo sapiens, Conc. 2.5 µM
[6] = system: HT1080 (human fibrosarcoma); assay: Cell adhesion assay on matrigel coated wells; type: cell-based; details: percent of adhesion with respect to the control (100%)
Protocol: Cell surface, non-integrin molecules such as heparan sulfate proteoglycans (HSPGs) may be involved in the regulation of early adhesive stages of cell-ECM interactions. A cell adhesion assay has been employed to determine if the newly designed heparanase inhibitors were able to interfere with adhesion properties of cancer cells.
HT1080 (human fibrosarcoma) cells were treated for 18-20 h with test compounds in complete medium supplemented with 10% FCS. Then cells were collected, washed in complete medium, and added to matrigel coated wells in triplicate, at previously identified optimal seeding density, and incubated at 37 °C in complete medium for times ranging from 15 minutes to 4h, according to the cell line. After incubation, the wells were washed three times with serum-free medium and the remaining firmly attached cells were stained with crystal-violet 0.1%. Optical density was measured at 560 nm by Victor 3 (Perkin-Elmer) plate analyzer. Each experiment was repeated three times.

U87MG [7] = assay: Cell adhesion assay on matrigel coated wells; type: cell-based, human; details: percent of adhesion with respect to the control (100%)
FGF-1 = assay: Real-Time Quantitative PCR of pro-angiogenic genes in HT1080 cells; type: cell-based, human; details: 24 h, Conc 2.5 uM
Protocol: (§3) To evaluate the effect of heparanase inhibitors on the tumor transcription of genes encoding for proangiogenic factors, such as FGF1/2, VEGF, MMP-9, HSPE-1, the relative mRNA levels were analyzed by quantitative Real-Time Quantitative PCR. To perform the assay, HT1080 (human fibrosarcoma) cells were cultured in complete medium containing 10%FCS (fetal calf serum). Cells were plated in 24-well plates and treated at fixed concentration (i.e., highest non-toxic concentration) of test compounds. After 24 h, cells were detached, collected and total RNA extracted by RNeasy Mini Kit (QIAGEN). Following reverse transcription step, FGF1/2, VEGF, MMP-9, HSPE-1 mRNA levels, were quantified by qPCR using the advanced Universal SYBR Green Supermix (Bio Rad) and ABI PRISM 7900HT Thermal Cycler System (Perkin Elmer), according to the manufacturer's instructions. Appropriate no-RT and non-template controls were included in each 96-well PCR reaction, and dissociation analysis was performed at the end of each run to confirm the specificity of the reaction. Relative levels of RNA were calculated using the ddCt method. Standard curve and sample data were run in duplicate. In the Table a mean value is reported.

FGF-2 = assay: as above; type: cell-based, human; details: 24 h, Conc 2.5 uM
Protocol: as §3

MMP-9 = assay: as above; type: cell-based, human; details: 24 h, Conc 2.5 uM
Protocol: as §3

VEGF = assay: as above; type: cell-based, human; details: 24 h, Conc 2.5 uM
Protocol: as §3

[8] = system: genes encoding for proangiogenic factors, such as FGF1/2, VEGF, MMP-9, HSPE-1; assay: Real-Time Quantitative PCR in HT1080 cells; type: cell-based, human; details: compared with SST0001 tested at 10 µM
Protocol: as §3

SMILES	IC50 (heparanase) [nM]	EC50 [1] [nM]	EC50 [2] [nM]	EC50 [3] [nM]	inhibition at 2.5 µM [4] [%]	inhibition at 2.5 µM (U87MG [5]) [%]	inhibition at 2.5 µM (U2OS) [%]	Adhesion Assay (%) HT1080 ([6]; HT1080, Conc. 2.5 µM)	Adhesion Assay (%) U87MG (U87MG [7]; Conc. 2.5 µM)	Gene Expression (% mRNA vs. control) FGF-1 (FGF-1)	Gene Expression (% mRNA vs. control) FGF-2 (FGF-2)	Gene Expression (% mRNA vs. control) MMP-9 (MMP-9)	Gene Expression (% mRNA vs. control) VEGF (VEGF)	potency in silencing gene expression [8]	inhibition at 10 µM ([4]; HT-1080, HT1080, Conc. 10 µM) [%]	Invasion Assay Inhibition (%) U87MG (U87MG [5]; Conc. 10 µM)	Invasion Assay Inhibition (%) U2OS (U2OS; Conc. 10 µM)	Adhesion Assay (%) HT1080 ([6]; HT1080, Conc. 10 µM)	Adhesion Assay (%) U87MG (U87MG [7]; Conc. 10 µM)
O=C(Nc1cccc(-c2nc3ccccc3[nH]2)c1)c1ccc(Oc2ccc(C(=O)Nc3cccc(-c4nc5ccccc5[nH]4)c3)cc2)cc1 [SST0656, N-[3-(1H-benzimidazol-2-yl)phenyl]-4-[4-[[3-(1H-benzimidazol-2-yl)phenyl]carbamoyl]phenoxy]benzamide]	50 to 490	> 2500	> 2500	> 2500	< 50	< 50	< 50	∼ 87%	∼ 97%										
O=C(Nc1ccc(-c2nc3ccccc3[nH]2)cc1)c1ccc(C(=O)Nc2ccc(-c3nc4ccccc4[nH]3)cc2)cc1 [SST0856, 1,4-Benzenedicarboxamide, N1,N4-bis[4-(1H-benzimidazol-2-yl)phenyl]-]					< 50	< 50	50 to 90	∼ 98%	∼ 99%	∼ 53%	∼ 76%	∼ 55%	∼ 54%	in the same range of reference compound SST0001					
O=C(O)c1ccc2c(c1)C(=O)N(c1ccc(NC(=O)c3cccc(C(=O)Nc4ccc(N5C(=O)c6ccc(C(=O)O)cc6C5=O)cc4Cl)c3)c(Cl)c1)C2=O [SST0859, 2-[4-[[3-[[4-(5-carboxy-1,3-dioxoisoindol-2-yl)-2-chlorophenyl]carbamoyl]benzoyl]amino]-3-chlorophenyl]-1,3-dioxoisoindole-5-carboxylic acid]					< 50	< 50	50 to 90	∼ 95%	∼ 100%	∼ 67%	∼ 73%	∼ 40%	∼ 61%	in the same range of reference compound SST0001					
Cc1ccc(C(=O)Nc2ccc(S(=O)(=O)O)c3cc(S(=O)(=O)O)cc(S(=O)(=O)O)c23)cc1NC(=O)c1cccc(NC(=O)Nc2cccc(C(=O)Nc3cc(C(=O)Nc4ccc(S(=O)(=O)O)c5cc(S(=O)(=O)O)cc(S(=O)(=O)O)c45)ccc3C)c2)c1 [Suramin, reference compound]		> 10000	> 10000	> 10000											< 50	-	-	∼ 100%	∼ 73%
